From US9247738B2, “Method and composition for inhibition of microbial growth in aqueous food transport and process streams” (Ecolab USA Inc., priority 2000, dated 2016)

Assays:
Type in all cases: cell-based
yeast and mold = experiment: Antimicrobial efficacy in fresh-cut vegetable processing water, Yeast & Mold Count
Method: (§1) Vegetable processing water testing was done using the same antimicrobial agents as in laboratory aqueous system testing. The varying concentrations of each agent are listed in the results section. Municipal tap water was the diluent.
(§2) The reduction of microorganisms in vegetable processing water treated with peroxyacetic acid or a peroxyacetic acid/peroxyoctanoic acid mixture was determined. Testing was done in two separate recycled water systems. In both systems, cut vegetables fell into a water stream that carried them to a de-watering area where they were collected for further processing. The water that the vegetables traveled in was routed to a balance tank that fed back into the original water stream thus completing the process loop. One system was used to wash cut, raw celery or cabbage. The other system was used to transport cut, raw potatoes to a blancher.
(§3) During processing of each vegetable, 10 water samples were collected in sterile plastic bags containing an inactivating agent (0.01% sodium thiosulfate). 1 mL quantities were plated on Petrifilm® (3M, Inc.) Aerobic Plate Count, Coliform Count and Yeast & Mold Count media. Validation of these media using this procedure was performed prior to initiating testing (data not presented). Serial 100-fold dilutions were also plated. Petrifilms were incubated at 35° C. for 24 hours (Coliform Count), 35° C. for 48 hours (Aerobic Plate Count), or at room temperature for 72 hours (Yeast & Mold Count). The number of microorganisms was counted following incubation.
(§4) The same analysis was used to evaluate the significance of reduction on vegetable surfaces.

Cryptococcus species = experiment: Rate of fungus kill in use-solution; details: Cryptococcus sp., 80 ppm total peracid, 25° C.
Method: (§5) Routine transfer to Sabouraud Dextrose agar slants maintained cultures of Candida parapsilosis (from blueberry processing water), Rhodotorula species (from celery processing water), Cryptococcus species (from potato processing water) and Zygosaccharomyces bailii (ATCC 60483). Growth was harvested by adding 5 mL of phosphate buffered water to the slant, mixing and then transferring the suspension into 90 mL of phosphate buffered water. The resulting suspension was used for testing.
(§6) Two antimicrobial agents were used for testing. The first agent contained peroxyacetic acid. The second contained a peroxyacetic acid/peroxyoctanoic acid mixture. Both agents were diluted in sterile deionized water to achieve a total peracid concentration of 80 ppm. The composition of the use-solutions were as follows:
(§7) The rate at which peroxyacetic acid and a peroxyacetic acid/peroxyoctanoic acid mixture killed fungi was measured by inoculating use-solutions of each antimicrobial agent with fungi and then quantifying survivors after various exposure times.
(§8) Testing was performed in duplicate. 99 mL of each antimicrobial use-solution was transferred to a 250 mL Erlenmeyer flask and allowed to equilibrate to 25° C. The liquid in the flask was swirled vigorously in a rapid circular motion and 1 mL of a fungus suspension was added. After 30 seconds, 2, 5 or 10 minutes 1 mL quantities of the use-solution were transferred to 9 mL of an inactivating solution including 0.1% sodium thiosulfate. 1 mL quantities of the inactivating solution were pour-plated using Sabouraud Dextrose agar. Serial 100-fold dilutions of the inactivating solution were also plated. Agar plates were incubated for 72 hours at 26° C. before counting survivors. The log reduction of fungi due to the antimicrobial agent was determined by comparing reduction to a water control.

Candida parapsilosis = experiment: Rate of fungus kill in use-solution; details: 80 ppm total peracid, 25° C.
Method: as §5, §6, §7, §8

[1] = tested on: Zygosaccharomyces bailii (ATCC 60483); experiment: Rate of fungus kill in use-solution; details: Z. bailii, 80 ppm total peracid, 25° C.
Method: as §5, §6, §7, §8

Rhodotorula species = experiment: Rate of fungus kill in use-solution; details: Rhodotorula sp., 80 ppm total peracid, 25° C.
Method: as §5, §6, §7, §8

Salmonella javiana = experiment: Kill of pathogenic bacteria on tomato surfaces and in the wash solution
Method: (§9) The following procedure was employed for determining whether a composition killed pathogenic bacteria (e.g. Escherichia coli O157:H7, Listeria monocytogenes, or Salmonella javiana) on the surface of a fruit or vegetable. Bacteria were applied to tomato surfaces and allowed a 1-2 hour attachment time. Contaminated tomatoes were submersed in a peroxyacetic/peroxyoctanoic acid mixture according to the present invention (at a level yielding 40 ppm peroxyacetic acid) or water for 1 minute without agitation. After 1 minute, tomatoes were transferred to a solution that neutralized the peroxy acids and peroxides and massaged for 3 minutes to remove attached bacteria. The number of attached bacteria that survived treatment was determined using standard agar plating technique. The number of bacteria that “fell off” the tomato into the water or peroxyacetic/peroxyoctanoic acid mixture according to the present invention, and survived, was also determined by neutralization and agar plating technique. A similar experiment was conducted employing a peroxyacetic acid antimicrobial composition.

Escherichia coli O157:H7 = experiment: as above
Method: as §9

Aerobic Bacteria = experiment: Antimicrobial efficacy on fresh-cut vegetables, aerobic bacteria; details: 30 second exposure to process water
Method: as §1, §2
(§10) Microorganism reduction on vegetable surfaces in the transport and process water was determined while water analyses were being conducted. Ten samples of each cut vegetable were collected just prior to falling into the process water stream and just after de-watering.
(§11) Eleven grams of each sample were transferred to bag containing 99 mL of sterile phosphate buffered water. Contents of the bag were mixed in a Stomacher brand mixer for approximately 1 minute. Afterwards, 1 mL of the mixture was plated on Petrifilm brand Aerobic Plate Count, Coliform Count and Yeast & Mold Count media. 1 mL quantities of 100-fold serial dilutions were also plated. Petrifilms were incubated and enumerated as described above in this Example.
as §4

coliform bacteria [2] = experiment: Antimicrobial efficacy on fresh-cut vegetables, coliform bacteria; details: 30 second exposure to process water
Method: as §1, §2, §10, §11, §4

Yeast & Mold = experiment: Antimicrobial efficacy on fresh-cut vegetables, yeast & mold; details: 30 second exposure to process water
Method: as §1, §2, §10
Eleven grams of each sample were transferred to bag containing 99 mL of sterile phosphate buffered water. Contents of the bag were mixed in a Stomacher brand mixer for approximately 1 minute. […] 1 mL quantities of 100-fold serial dilutions were also plated. […]

coliform bacteria [3] = experiment: Antimicrobial efficacy in fresh-cut vegetable processing water, Coliform Count
Method: as §1, §2, §3, §4

Listeria monocytogenes = experiment: Kill of pathogenic bacteria on tomato surfaces and in the wash solution
Method: The following procedure was employed for determining whether a composition killed pathogenic bacteria (e.g. Escherichia coli O157:H7, Listeria monocytogenes, or Salmonella javiana) on the surface of a fruit or vegetable. Bacteria were applied to tomato surfaces and allowed a 1-2 hour attachment time. […] After 1 minute, tomatoes were transferred to a solution that neutralized the peroxy acids and peroxides and massaged for 3 minutes to remove attached bacteria. The number of attached bacteria that survived treatment was determined using standard agar plating technique. The number of bacteria that “fell off” the tomato into the water or peroxyacetic/peroxyoctanoic acid mixture according to the present invention, and survived, was also determined by neutralization and agar plating technique. A similar experiment was conducted employing a peroxyacetic acid antimicrobial composition.

total aerobic bacteria = experiment: Antimicrobial efficacy in fresh-cut vegetable processing water, Aerobic Plate Count
Method: as §1, §2, §3, §4

Penicillium species = experiment: Rate of fungus kill in use-solution (mold conidia); details: Penicillium sp., 80 ppm total peracid, 25° C.
Method: (§12) Routine transfer to Sabouraud Dextrose agar slants maintained cultures of Aspergillus species (from onion processing water), Penicillium species (from celery processing water) and Cladosporium species (from potato processing water). Conidia suspensions of each mold were prepared by subculturing each mold to Sabouraud Dextrose agar plates and incubating until thick aerial mycelia with conidia were evident. Conidia were harvested by adding approximately 10 mL of phosphate buffered water to the plate, scraping the mycelia and collecting the suspension in a flask. The suspension was filtered through sterile gauze to remove large mycelia fragments from the conidia. The resulting suspension was used for testing.
as §6, §7, §8

Cladosporium species = experiment: Rate of fungus kill in use-solution (mold conidia); details: Cladosporium sp., 80 ppm total peracid, 25° C.
Method: as §12, §6, §7, §8

Aspergillus species = experiment: Rate of fungus kill in use-solution (mold conidia); details: Aspergillus sp., 80 ppm total peracid, 25° C.
Method: as §12, §6, §7, §8

[4] = Cabbage process water, average peracid from POAA agent 26 ppm, from POAA/POOA agent 29 ppm
[5] = Celery process water, average peracid from POAA agent 38 ppm, from POAA/POOA agent 39 ppm
[6] = Potatoes process water, average peracid from POAA agent 54 ppm, from POAA/POOA agent 32 ppm
[7] = Cabbage, peracid POAA agent 26 ppm, POAA/POOA agent 29 ppm
[8] = Celery, peracid POAA agent 38 ppm, POAA/POOA agent 39 ppm
[9] = Potatoes, peracid POAA agent 54 ppm, POAA/POOA agent 32 ppm

## CC(=O)OO [POAA, peroxyacetic acid]
Yeast and mold; [4]
  Average number of microorganisms in process water, Yeast & Mold Count: 2.02 log CFU/mL
Yeast and mold; [5]
  Average number of microorganisms in process water, Yeast & Mold Count: 1.86 log CFU/mL
Yeast and mold; [6]
  Average number of microorganisms in process water, Yeast & Mold Count: 5.48 log CFU/mL
Cryptococcus species; 2 Minutes
  Average log reduction of yeast: >7.08 log
Cryptococcus species; 5 Minutes
  Average log reduction of yeast: >7.08 log
Cryptococcus species; 30 Seconds
  Average log reduction of yeast: >7.08 log
Candida parapsilosis; 2 Minutes
  Average log reduction of yeast: 1.49 log
Candida parapsilosis; 5 Minutes
  Average log reduction of yeast: 3.42 log
Candida parapsilosis; 30 Seconds
  Average log reduction of yeast: 0.34 log
[1]; 2 Minutes
  Average log reduction of yeast: 0.18 log
[1]; 5 Minutes
  Average log reduction of yeast: 0.94 log
[1]; 30 Seconds
  Average log reduction of yeast: 0.16 log
Rhodotorula species; 2 Minutes
  Average log reduction of yeast: >3.88 log
Rhodotorula species; 5 Minutes
  Average log reduction of yeast: >3.88 log
Rhodotorula species; 30 Seconds
  Average log reduction of yeast: >3.88 log
Salmonella javiana; 20 ppm POAA
  reduction in amounts of S. javiana: no reduction
Salmonella javiana; 40 ppm POAA
  reduction in amounts of S. javiana: no reduction
Salmonella javiana; 60 ppm POAA
  reduction in amounts of S. javiana: 91%
Escherichia coli O157:H7; 20 ppm POAA
  reduction in the E. coli O157:H7 in tomato wash water: 57%
Escherichia coli O157:H7; 40 ppm POAA
  reduction in the E. coli O157:H7 in tomato wash water: 88%
Escherichia coli O157:H7; 60 ppm POAA
  reduction in the E. coli O157:H7 in tomato wash water: 94%
Aerobic Bacteria; [7]
  Average log reduction on fresh-cut vegetables, Aerobic Bacteria Reduction: 0.84 log
Aerobic Bacteria; [8]
  Average log reduction on fresh-cut vegetables, Aerobic Bacteria Reduction: 1.07 log
Aerobic Bacteria; [9]
  Average log reduction on fresh-cut vegetables, Aerobic Bacteria Reduction: 1.54 log
Coliform bacteria [2]; [7]
  Average log reduction on fresh-cut vegetables, Coliform Bacteria Reduction: >0.88 log
Coliform bacteria [2]; [8]
  Average log reduction on fresh-cut vegetables, Coliform Bacteria Reduction: 0.77 log
Coliform bacteria [2]; [9]
  Average log reduction on fresh-cut vegetables, Coliform Bacteria Reduction: >1.58 log
Yeast & Mold; [7]
  Average log reduction on fresh-cut vegetables, Yeast & Mold Reduction: 0.77 log
Yeast & Mold; [8]
  Average log reduction on fresh-cut vegetables, Yeast & Mold Reduction: 0.68 log
Coliform bacteria [3]; [4]
  Average number of microorganisms in process water, Coliform Count: 0 log CFU/mL
Coliform bacteria [3]; [5]
  Average number of microorganisms in process water, Coliform Count: 0 log CFU/mL
Coliform bacteria [3]; [6]
  Average number of microorganisms in process water, Coliform Count: 0 log CFU/mL
Listeria monocytogenes; 20 ppm POAA
  reduction of L. monocytogenes on tomatoes: 84%
Listeria monocytogenes; 40 ppm POAA
  reduction of L. monocytogenes on tomatoes: 95%
Listeria monocytogenes; 60 ppm POAA
  reduction of L. monocytogenes on tomatoes: 98%
Total aerobic bacteria; [4]
  Average number of microorganisms in process water, Aerobic Plate Count: 1.92 log CFU/mL
Total aerobic bacteria; [5]
  Average number of microorganisms in process water, Aerobic Plate Count: 2.02 log CFU/mL
Total aerobic bacteria; [6]
  Average number of microorganisms in process water, Aerobic Plate Count: 0.92 log CFU/mL
Penicillium species; 2 Minutes
  Average log reduction of mold: 0 log
Penicillium species; 5 Minutes
  Average log reduction of mold: 0.45 log
Penicillium species; 10 Minutes
  Average log reduction of mold: 1.52 log
Cladosporium species; 2 Minutes
  Average log reduction of mold: 1.86 log
Cladosporium species; 5 Minutes
  Average log reduction of mold: 4.18 log
Cladosporium species; 10 Minutes
  Average log reduction of mold: >4.18 log
Aspergillus species; 2 Minutes
  Average log reduction of mold: 0 log
Aspergillus species; 5 Minutes
  Average log reduction of mold: 0 log
Aspergillus species; 10 Minutes
  Average log reduction of mold: 0 log
